The values that follow come from patent US8044213B2, “Thiazolyl-benzimidazoles” (Hoffmann-La Roche Inc., priority 2008, dated 2011).

The term IC50 denotes the concentration that inhibits the measured activity by half. Higher therefore signals weaker potency.

T2 sequence (P53350 whole entry): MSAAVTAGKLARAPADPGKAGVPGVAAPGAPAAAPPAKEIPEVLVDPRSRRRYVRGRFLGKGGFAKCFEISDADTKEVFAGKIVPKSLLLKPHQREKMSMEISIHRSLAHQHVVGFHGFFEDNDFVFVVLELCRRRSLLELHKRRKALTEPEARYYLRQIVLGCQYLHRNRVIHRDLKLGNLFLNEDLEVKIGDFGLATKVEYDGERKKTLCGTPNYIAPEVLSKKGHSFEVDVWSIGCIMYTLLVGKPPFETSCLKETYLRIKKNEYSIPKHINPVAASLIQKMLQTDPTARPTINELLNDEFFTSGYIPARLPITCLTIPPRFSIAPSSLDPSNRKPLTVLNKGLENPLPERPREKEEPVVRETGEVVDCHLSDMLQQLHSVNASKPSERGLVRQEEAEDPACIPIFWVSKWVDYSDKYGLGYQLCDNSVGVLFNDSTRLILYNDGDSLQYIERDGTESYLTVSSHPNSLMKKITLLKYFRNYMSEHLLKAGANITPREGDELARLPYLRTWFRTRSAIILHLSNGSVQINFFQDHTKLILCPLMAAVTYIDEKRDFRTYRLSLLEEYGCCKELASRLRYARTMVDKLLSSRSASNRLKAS

The target in the first assay is T1, GST-Plk1 (Homo sapiens, UniProt P53350).
T1 construct: Full-length, active GST-Plk1 was purified from Sf9 insect cells; made in house; host or cells: Sf9 insect cells
T1 sequence (P53350 whole entry): as above
Put plainly: Biochemical Characterization Assay A (HTRF, phosphorylation of GST-p53). Particulars: full-length GST-Plk1, GST-p53 substrate, HTRF signal. Here is the method: Full-length, active GST-Plk1 was purified from Sf9 insect cells, and full-length GST-p53 was purified in E. coli. Anti-phospho p53 antibody was purchased from Cell Signaling Technology. Europium-conjugated anti-rabbit antibody was purchased from PerkinElmer Life and Analytical Sciences. APC-conjugated anti-GST antibody was purchased from Prozyme.
To two microliters of compound (0.6 nM-4 mM) in DMSO or plain DMSO for control wells, 38 microliters of 20 mM HEPES pH 7, 50 mM NaCl, 10 mM MgCl2, 0.5 mM TCEP, 0.1 mM sodium orthovanadate, 0.1 mg/ml BSA, and 0.05% Triton X-100 (Kinase Assay Buffer) were added. Eight microliters of the compound solution were added to a 384-well black microtiter plate, followed by six microliters of GST-p53 (17 ug/ml) and ATP (333 uM) in Kinase Assay Buffer. Six microliters of GST-Plk1 (3 ug/ml) in Kinase Assay Buffer were then added and the solution incubated at 37° C. for 35 minutes. Six microliters of solution containing 43 mM EDTA to stop the reaction and a 1:600 dilution of anti-phospho-p53 antibody in 20 mM HEPES pH 7, 50 mM NaCl, and 0.5 mg/ml BSA (Antibody Binding Buffer) were added and the solution incubated at 37° C. for 30 minutes. Six microliters of solution containing 9 nM europium-conjugated anti-rabbit antibody and 120 nM APC-conjugated anti-GST antibody in Antibody Binding Buffer were then added and the mixture incubated at room temperature for 1.5 hours. The HTRF signal was read on the Envision reader (PerkinElmer Life and Analytical Sciences).
(§1) The IC50 values for each compound were generated using an Excel template. The % conversion readings of Total and Blank were used as 0% and 100% inhibition. The percent inhibition values of reactions in the presence of compounds were calculated, and plotted against compound concentrations. All data were fitted into a Dose Response One Site model (4 parameter logistic model) as the following: (A+4B−A)/(1+((x/C)^13)))), with A and B as the bottom and top of the curve (highest and lowest inhibition), respectively, and C as IC50 and D as Hill Coefficient of the compound.
Background: Time-resolved FRET reads energy transfer from a long-lived donor to a nearby acceptor.
The compound `CN1CCN(Cc2ccc3ncn(-c4nc(-c5ccccc5)c(C(N)=O)s4)c3c2)CC1` [Example 1, 2-[6-(4-Methyl-piperazin-1-ylmethyl)-benzoimidazol-1-yl]-4-phenyl-thiazole-5-carboxylic acid amide] registered a half-maximal inhibitory concentration (IC50) of 167 nM.

On to `CN1CCN(Cc2ccc3ncn(-c4nc(-c5cccc(Cl)c5)c(C(N)=O)s4)c3c2)CC1` [Example 2, 4-(3-Chloro-phenyl)-2-[6-(4-methyl-piperazin-1-ylmethyl)-benzoimidazol-1-yl]-thiazole-5-carboxylic acid amide], for which half-maximal inhibition (IC50) was put at 13 nM.

`CN1CCN(Cc2ccc3c(c2)ncn3-c2nc(-c3cccc(Cl)c3)c(C(N)=O)s2)CC1` [Example 3, 4-(3-Chloro-phenyl)-2-[5-(4-methyl-piperazin-1-ylmethyl)-benzoimidazol-1-yl]-thiazole-5-carboxylic acid amide] registered a half-maximal inhibitory concentration (IC50) of 1100 nM.

Regarding `NC(=O)c1sc(-n2cnc3ccc(CN4CCOCC4)cc32)nc1-c1cccc(Cl)c1` [Example 4, 4-(3-Chloro-phenyl)-2-(6-morpholin-4-ylmethyl-benzoimidazol-1-yl)-thiazole-5-carboxylic acid amide], the concentration for half-maximal inhibition (IC50) was determined as 306 nM.

Compound `NC(=O)c1sc(-n2cnc3ccc(CN4CCN(CCO)CC4)cc32)nc1-c1cccc(Cl)c1` [Example 5, 4-(3-Chloro-phenyl)-2-{6-[4-(2-hydroxy-ethyl)-piperazin-1-ylmethyl]-benzoimidazol-1-yl}-thiazole-5-carboxylic acid amide] yielded a 50% inhibitory concentration (IC50) of 91 nM.

As for `CN1CCC(NCc2ccc3ncn(-c4nc(-c5cccc(Cl)c5)c(C(N)=O)s4)c3c2)CC1` [Example 7, 4-(3-Chloro-phenyl)-2-{6-[(1-methyl-piperidin-4-ylamino)-methyl]-benzoimidazol-1-yl}-thiazole-5-carboxylic acid amide], half-maximal inhibition (IC50) was put at 443 nM.

As for `NC(=O)c1sc(-n2cnc3ccc(CN4CCCCC4)cc32)nc1-c1cccc(Cl)c1` [Example 8, 4-(3-Chloro-phenyl)-2-(6-piperidin-1-ylmethyl-benzoimidazol-1-yl)-thiazole-5-carboxylic acid amide], the IC50 worked out at 3440 nM.

In turn, `CN1CCN(CCc2ccc3ncn(-c4nc(-c5cccc(Cl)c5)c(C(N)=O)s4)c3c2)CC1` [Example 9, 4-(3-Chloro-phenyl)-2-{6-[2-(4-methyl-piperazin-1-yl)-ethyl]-benzoimidazol-1-yl}-thiazole-5-carboxylic acid amide] gave an IC50 of 109 nM.

Compound `CN1CCC(NC(=O)c2ccc3ncn(-c4nc(-c5cccc(Cl)c5)c(C(N)=O)s4)c3c2)CC1` [Example 10, 3-[5-Carbamoyl-4-(3-chloro-phenyl)-thiazol-2-yl]-3H-benzoimidazole-5-carboxylic acid (1-methyl-piperidin-4-yl)-amide] returned a concentration for half-maximal inhibition (IC50) of 2020 nM.

`CN1CCN(C(=O)c2ccc3ncn(-c4nc(-c5cccc(Cl)c5)c(C(N)=O)s4)c3c2)CC1` [Example 11, 4-(3-Chloro-phenyl)-2-[6-(4-methyl-piperazine-1-carbonyl)-benzoimidazol-1-yl]-thiazole-5-carboxylic acid amide] gave an IC50 of 215 nM.

A further assay concerns the target T2, PLK1 (Homo sapiens, UniProt P53350).
T2 construct: Full-length, active GST-Plk1 was purified from Sf9 insect cells; GST (N); made in house; host or cells: Sf9 insect cells
The assay can be described thus: Biochemical Characterization Assay B (peptide substrate, LABCHIP EZ Reader II). Particulars: PLK1, peptide RRRAGALMDASFEEQ-CONH2, % conversion on LABCHIP EZ Reader II. Here is the method:
Compounds were serially diluted to 6400, 2133, 711, 237, 79, 26, 8.78, 2.93, 0.98 and 0.33 μM in 100% DMSO. Diluted compound was further diluted 20 fold with Kinase Assay Buffer (KAB). Peptide RRRAGALMDASFEEQ-CONH2 (MW 2090) was diluted to 1.2 μM with KAB and ATP was added to 400 μM. PLK1 stock, prepared as described above, was diluted to 3 μg protein/mL with KAB right before it was added to MATRIX 384-Well Polypropylene Black Plates to start the reaction. 20 μL of KAB diluted compounds (or 5% DMSO in KAB for Total and Blank), 20 μL of KAB diluted peptide with ATP and 40 μL of KAB diluted PLK1 solution (KAB without PLK 1 for Blanks) were transferred to each well of the polypropylene plates. The reaction mixtures were incubated at room temperature for 40 minutes. Reactions were stopped by addition of 10 uL Reaction Stopping Buffer (RSB) to each well. Plates were then read on LABCHIP EZ Reader II from Caliper Life Science.
as §1
The compound `NC(=O)c1sc(-n2cnc3ccc(OCCCN4CCCC4)cc32)nc1-c1cccc(Cl)c1` [Example 34, 4-(3-Chloro-phenyl)-2-[6-(3-pyrrolidin-1-yl-propoxy)-benzoimidazol-1-yl]-thiazole-5-carboxylic acid amide] gave an IC50 of 50 nM.

`NC(=O)c1sc(-n2cnc3ccc(OCCCN(CCO)CCO)cc32)nc1-c1cccc(Cl)c1` [Example 35, 2-(6-{3-[Bis-(2-hydroxy-ethyl)-amino]-propoxy}-benzoimidazol-1-yl)-4-(3-chloro-phenyl)-thiazole-5-carboxylic acid amide] displayed a concentration for half-maximal inhibition (IC50) of 68 nM.

For `NC(=O)c1sc(-n2cnc3ccc(OCCCNCCO)cc32)nc1-c1cccc(Cl)c1` [Example 36, 4-(3-Chloro-phenyl)-2-{6-[3-(2-hydroxy-ethylamino)-propoxy]-benzoimidazol-1-yl}-thiazole-5-carboxylic acid amide], 80 nM corresponded to half-maximal inhibition (IC50).

The compound `CN1CCN(CCCCOc2ccc3ncn(-c4nc(-c5cccc(Cl)c5)c(C(N)=O)s4)c3c2)CC1` [Example 37, 4-(3-Chloro-phenyl)-2-{6-[4-(4-methyl-piperazin-1-yl)-butoxy]-benzoimidazol-1-yl}-thiazole-5-carboxylic acid amide] came in with an IC50 of 27 nM.

In turn, `NC(=O)c1sc(-n2cnc3ccc(OCCCCN4CCOCC4)cc32)nc1-c1cccc(Cl)c1` [Example 38, 4-(3-Chloro-phenyl)-2-[6-(4-morpholin-4-yl-butoxy)-benzoimidazol-1-yl]-thiazole-5-carboxylic acid amide] gave an IC50 of 11 nM.

Turning to `CN1CCN(CC(O)COc2ccc3ncn(-c4nc(-c5cccc(Cl)c5)c(C(N)=O)s4)c3c2)CC1` (stereo not drawn) [Example 39, 4-(3-Chloro-phenyl)-2-{6-[2-hydroxy-3-(4-methyl-piperazin-1-yl)-propoxy]-benzoimidazol-1-yl}-thiazole-5-carboxylic acid amide], the midpoint of inhibition, the IC50, lay at 50 nM.

On to `NC(=O)c1sc(-n2cnc3ccc(OCC(O)CN4CCOCC4)cc32)nc1-c1cccc(Cl)c1` (stereo not drawn) [Example 40, 4-(3-Chloro-phenyl)-2-[6-(2-hydroxy-3-morpholin-4-yl-propoxy)-benzoimidazol-1-yl]-thiazole-5-carboxylic acid amide], for which inhibition was half-maximal at 13 nM (IC50).

As to `NC(=O)c1sc(-n2cnc3ccc(CCCCN4CCOCC4)cc32)nc1-c1cccc(Cl)c1` [Example 41, 4-(3-Chloro-phenyl)-2-[6-(4-morpholin-4-yl-butyl)-benzoimidazol-1-yl]-thiazole-5-carboxylic acid amide], the 50% inhibitory concentration (IC50) worked out at 16 nM.

`COc1cc2ncn(-c3nc(-c4cccc(Cl)c4)c(C(N)=O)s3)c2cc1OCCCN1CCOCC1` [Example 43, 4-(3-Chloro-phenyl)-2-[5-methoxy-6-(3-morpholin-4-yl-propoxy)-benzoimidazol-1-yl]-thiazole-5-carboxylic acid amide] displayed an IC50 of 8 nM.

`COc1cc2ncn(-c3nc(-c4cccc(Cl)c4)c(C(N)=O)s3)c2cc1OCCN1CCN(C)CC1` [Example 44, 4-(3-Chloro-phenyl)-2-{5-methoxy-6-[2-(4-methyl-piperazin-1-yl)-ethoxy]-benzoimidazol-1-yl}-thiazole-5-carboxylic acid amide] returned an IC50 of 61 nM.

Compound `COc1cc2ncn(-c3nc(-c4cccc(Cl)c4)c(C(N)=O)s3)c2cc1OCCN1CCOCC1` [Example 45, 4-(3-Chloro-phenyl)-2-[5-methoxy-6-(2-morpholin-4-yl-ethoxy)-benzoimidazol-1-yl]-thiazole-5-carboxylic acid amide] had an IC50 of 26 nM.

Compound `COc1cc2ncn(-c3nc(-c4cccc(Cl)c4)c(C(N)=O)s3)c2cc1CN1CCN(C)CC1` [Example 46, 4-(3-Chloro-phenyl)-2-[5-methoxy-6-(4-methyl-piperazin-1-ylmethyl)-benzoimidazol-1-yl]-thiazole-5-carboxylic acid amide] registered an IC50 of 13 nM.

Consider `NC(=O)c1sc(-n2cnc3ccc(CN(CCCN4CCOCC4)CCCN4CCOCC4)cc32)nc1-c1cccc(Cl)c1` [Example 49, 2-(6-{[Bis-(3-morpholin-4-yl-propyl)-amino]-methyl}-benzoimidazol-1-yl)-4-(3-chloro-phenyl)-thiazole-5-carboxylic acid amide], for which the IC50 was determined as 566 nM.

For the compound `CN(CCCN1CCOCC1)Cc1ccc2ncn(-c3nc(-c4cccc(Cl)c4)c(C(N)=O)s3)c2c1` [Example 50, 4-(3-Chloro-phenyl)-2-(6-{[methyl-(3-morpholin-4-yl-propyl)-amino]-methyl}-benzoimidazol-1-yl)-thiazole-5-carboxylic acid amide], the midpoint of inhibition, the IC50, lay at 85 nM.
